# Measured values as given in patent US10604509B2, “Nrf2 regulators” (GlaxoSmithKline Intellectual Property Development Limited, priority 2015, dated 2020).
# Where a name gives a salt, the structure may show the parent alone. Read-outs that look alike come from different tables or passages of the source.
# Tested on: NQO1 specific enzyme activity in BEAS-2B cells
# Assay: BEAS-2B NQO1 MTT assay
# Assay type: cell-based
# Conditions: BEAS-2B cells, 48 hours with compound, MTT readout, read-out: EC50 of NQO1 specific activity induction
# Procedure, shortened: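 NQO1 specific activity, an NRF2 activation marker, read kinetically as absorbance change at 570 nm for 30 min after MTT cocktail addition to crude lysates of BEAS-2B cells exposed 48 h to compound. Three-parameter fit of Delta OD/min against log concentration gives EC50; lysate portion used for Cell Titer Glo.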
SMILES,"EC50 (Homo sapiens, BEAS-2B, 48 h)",EC50
"Cc1ccc(C(CC(=O)O)c2ccc3c(nnn3C)c2C)cc1CN(C)Cc1cccc(Br)c1 (stereo not shown) [Example 17, Ammonium 3-(3-(((3-bromobenzyl)(methyl)amino)methyl)-4-methylphenyl)-3-(1,4-dimethyl-1H-benzo[d][1,2,3]triazol-5-yl)propanoate]",1000 to 10000 nM,–
"CC[C@@H]1CN(Cc2cc(C(CC(=O)O)c3cc(OC)c4c(nnn4C)c3C)ccc2C)Cc2ccccc2O1 (stereo partly drawn) [Example 45, 3-(3-(((R)-2-Ethyl-2,3-dihydrobenzo[f][1,4]oxazepin-4(5H)-yl)methyl)-4-methylphenyl)-3-(7-methoxy-1,4-dimethyl-1H-benzo[d][1,2,3]triazol-5-yl)propanoic Acid, Formic Acid Salt]",100 to 1000 nM,–
"Cc1c(C(CC(=O)O)c2ccc(Cl)c(CN3CCCC(n4cccn4)C3)c2)ccc2c1nnn2C (stereo not shown) [Example 160, 3-(3-((3-(1H-Pyrazol-1-yl)piperidin-1-yl)methyl)-4-chlorophenyl)-3-(1,4-dimethyl-1H-benzo[d][1,2,3]triazol-5-yl)propanoic Acid, Formic Acid Salt]",1000 to 10000 nM,–
"CC[C@@H]1CN(Cc2cc(C(CC(=O)O)c3ccc4c(nnn4C)c3C)ccc2C)Cc2cc(Cl)ccc2O1 (stereo partly drawn) [Example 77, Ammonium 3-(3-(((R)-7-Chloro-2-ethyl-2,3-dihydrobenzo[f][1,4]oxazepin-4(5H)-yl)methyl)-4-methylphenyl)-3-(1,4-dimethyl-1H-benzo[d][1,2,3]triazol-5-yl)propanate]",1000 to 10000 nM,–
"CC[C@@H]1CN(Cc2cc([C@H](c3ccc4c(nnn4C)c3C)[C@H](C)C(=O)O)ccc2C)Cc2ccccc2O1 [Example 39, (2S,3R)-3-(1,4-Dimethyl-1H-benzo[d][1,2,3]triazol-5-yl)-3-(3-(((R)-2-ethyl-2,3-dihydrobenzo[f][1,4]oxazepin-4(5H)-yl)methyl)-4-methylphenyl)-2-methylpropanoic Acid]",10 to 100 nM,–
"Cc1ccc(C(CC(=O)O)c2ccc3c(nnn3C)c2C)cc1CN1Cc2ccc(C#N)cc2OC(C)(C)C1 (single isomer, unassigned) [Example 173]",10 to 100 nM,–
"CC[C@@H]1CN(Cc2cc([C@H](CC(=O)O)c3ccc4c(nnn4CC)c3F)ccc2C)Cc2cccc(F)c2O1 [Example 52, (S)-3-(1-Ethyl-4-fluoro-1H-benzo[d][1,2,3]triazol-5-yl)-3-(3-(((R)-2-ethyl-9-fluoro-2,3-dihdyrobenzo[f][1,4]oxazepin-4(5H)-yl)methyl)-4-methylphenyl)propanoic acid, 0.5formic acid salt]",1 to 10 nM,–
"CC[C@@H]1CN(Cc2cc(C(CCc3cn(CC)nn3)C(C)(C)C(=O)O)ccc2C)Cc2cccnc2O1 (stereo partly drawn) [Example 217, 5-(1-Ethyl-1H-1,2,3-triazol-4-yl)-3-(3-(((R)-2-ethyl-2,3-dihydropyrido[3,2-f][1,4]oxazepin-4(5H)-yl)methyl)-4-methylphenyl)-2,2-dimethylpentanoic Acid]",10 to 100 nM,–
"CC[C@@H]1CN(Cc2cc(C(CCc3cn(CC)nn3)C(C)C(=O)O)ccc2C)Cc2ccccc2O1 (single isomer, unassigned; isomer 3) [Example 120]",–,1 to 10 nM
"CC[C@@H]1CN(Cc2cc(C(CC(=O)O)c3ccc4c(nnn4C)c3C)ccc2C)Cc2cnccc2O1 (stereo partly drawn) [Example 86, 3-(1,4-Dimethyl-1H-benzo[d][1,2,3]triazol-5-yl)-3-(3-(((R)-2-ethyl-2,3-dihydropyrido[3,4-f][1,4]oxazepin-4(5H)-yl)methyl)-4-methylphenyl)propanoic acid]",100 to 1000 nM,–
"CCn1nnc2c(F)c([C@H](CC(=O)O)c3ccc(C)c(CN4Cc5ccccc5OC(C)(C)C4)c3)ccc21 [Example 65, (R)-3-(3-((2,2-Dimethyl-2,3-dihydrobenzo[f][1,4]oxazepin-4(5H)-yl)methyl)-4-methylphenyl)-3-(1-ethyl-4-fluoro-1H-benzo[d][1,2,3]triazol-5-yl)propanoic Acid, Hydrochloride]",10 to 100 nM,–
"Cc1ccc([C@@H](CC(=O)O)c2ccc3c(nnn3C)c2C)cc1CN1Cc2cc(F)ccc2OC(C)(C)C1 [Example 57, (R)-3-(1,4-Dimethyl-1H-benzo[d][1,2,3]triazol-5-yl)-3-(3-((7-fluoro-2,2-dimethyl-2,3-dihydrobenzo[f][1,4]oxazepin-4(5H)-yl)methyl)-4-methylphenyl)propanoic acid, 0.7formic acid salt]",–,10 to 100 nM
"CCC1CN(Cc2cc([C@@H](CC(=O)O)c3ccc4c(nnn4C)c3C)ccc2C)Cc2ccccc2O1 (stereo partly drawn) [Example 6, (3R)-3-(1,4-Dimethyl-1H-benzo[d][1,2,3]triazol-5-yl)-3-(3-((2-ethyl-2,3-dihydrobenzo[f][1,4]oxazepin-4(5H)-yl)methyl)-4-methylphenyl)propanoic Acid, Trifluoroacetic Acid Salt]",100 to 1000 nM,–
"CCc1ncc2c(n1)CN(Cc1cc(C(CC(=O)O)c3ccc4c(nnn4C)c3C)ccc1C)CC2 (stereo not shown) [Example 13, Ammonium 3-(1,4-dimethyl-1H-benzo[d][1,2,3]triazol-5-yl)-3-(3-((2-ethyl-5,6-dihydropyrido[3,4-d]pyrimidin-7(8H)-yl)methyl)-4-methylphenyl)propanoate]",1000 to 10000 nM,–
"CC[C@@H]1CN(Cc2cc([C@H](CC(=O)O)c3ccc4c(nnn4C)c3C)ccc2C)Cc2ccccc2O1 [Example 49, (S)-3-(1,4-Dimethyl-1H-benzo[d][1,2,3]triazol-5-yl)-3-(3-(((R)-2-ethyl-2,3-dihydrobenzo[f][1,4]oxazepin-4(5H)-yl)methyl)-4-methylphenyl)propanoic Acid, Formic Acid Salt]",100 to 1000 nM,–
"Cc1c(C(CC(=O)O)c2ccc(Cl)c(CN3CCCC(O)C3)c2)ccc2c1nnn2C (stereo not shown) [Example 161, 3-(4-chloro-3-((3-hydroxypiperidin-1-yl)methyl)phenyl)-3-(1,4-dimethyl-1H-benzo[d][1,2,3]triazol-5-yl)propanoic Acid]",1000 to 10000 nM,–
"CCC1CCN(Cc2nccn2Cc2cc(C(CCc3cn(CC)nn3)C(C)(C)C(=O)O)ccc2Cl)CC1 (stereo not shown) [Example 230, 3-(4-Chloro-3-((2-((4-ethylpiperidin-1-yl)methyl)-1H-imidazol-1-yl)methyl)phenyl)-5-(1-ethyl-1H-1,2,3-triazol-4-yl)-2,2-dimethylpentanoic Acid]",1 to 10 nM,–
"CC[C@@H]1CN(Cc2cc([C@@H](c3ccc4c(nnn4C)c3C)[C@H](C)C(=O)O)ccc2C)Cc2ccccc2O1 [Example 41, (2S,3S)-3-(1,4-Dimethyl-1H-benzo[d][1,2,3]triazol-5-yl)-3-(3-(((R)-2-ethyl-2,3-dihydrobenzo[f][1,4]oxazepin-4(5H)-yl)methyl)-4-methylphenyl)-2-methylpropanoic Acid]",100 to 1000 nM,–
"CC[C@@H]1CN(Cc2cc(C(CC(=O)O)c3ccc4c(nnn4CC)c3F)ccc2C)Cc2ccccc2O1 (single isomer, unassigned) [Example 181]",10 to 100 nM,–
"CCn1nnc2c(Cl)c([C@H](CC(=O)O)c3ccc(C)c(CN4Cc5ccccc5OC(C)(C)C4)c3)ccc21 [Example 55, (R)-3-(4-Chloro-1-ethyl-1H-benzo[d][1,2,3]triazol-5-yl)-3-(3-((2,2-dimethyl-2,3-dihydrobenzo[f][1,4]oxazepin-4(5H)-yl)methyl)-4-methylphenyl)propanoate, Sodium salt]",10 to 100 nM,–
"CCC1Cc2ccc(F)cc2CN(Cc2cc(C(CC(=O)O)c3ccc4c(nnn4C)c3C)ccc2C)C1 (stereo not shown) [compound 107, 3-(1,4-dimethyl-1H-benzo[d][1,2,3]triazol-5-yl)-3-(3-((4-ethyl-8-fluoro-4,5-dihydro-1H-benzo[c]azepin-2(3H)-yl)methyl)-4-methylphenyl)propanoic acid]",10 to 100 nM,–
"CC[C@@H]1CN(Cc2cc([C@@H](c3ccc4c(nnn4C)c3C)[C@@H](C)C(=O)O)ccc2C)Cc2ccccc2O1 [Example 38, (2R,3S)-3-(1,4-dimethyl-1H-benzo[d][1,2,3]triazol-5-yl)-3-(3-(((R)-2-ethyl-2,3-dihydrobenzo[f][1,4]oxazepin-4(5H)-yl)methyl)-4-methylphenyl)-2-methylpropanoic Acid, Formic Acid Salt]",10 to 100 nM,–
"Cc1c(C(CC(=O)O)c2ccc(Cl)c(CN3CCOc4ccccc4C3)c2)ccc2c1nnn2C (stereo not shown) [Example 99, 3-(4-Chloro-3-((2,3-dihydrobenzo[f][1,4]oxazepin-4(5H)-yl)methyl)phenyl)-3-(1,4-dimethyl-1H-benzo[d][1,2,3]triazol-5-yl)propanoic Acid, Formic Acid Salt]",1000 to 10000 nM,–
"Cc1ccc(C(CC(=O)O)c2ccc3c(nnn3C)c2C)cc1CN1Cc2cc(C#N)ccc2OC(C)(C)C1 (single isomer, unassigned) [Example 171]",10 to 100 nM,–
"Cc1ccc(C(CC(=O)O)c2ccc3c(nnn3C)c2C)cc1CN(C)Cc1ccc(Br)cc1 (stereo not shown) [Example 16, Ammonium 3-(3-(((4-bromobenzyl)(methyl)amino)methyl)-4-methylphenyl)-3-(1,4-dimethyl-1H-benzo[d][1,2,3]triazol-5-yl)propanoate]",1000 to 10000 nM,–
"Cc1ccc([C@@H](c2ccc3c(nnn3C)c2C)C(C)(C)C(=O)O)cc1Cn1ccnc1CN1CCCCCC1 [Example 126, (S)-3-(3-((2-(Azepan-1-ylmethyl)-1H-imidazol-1-yl)methyl)-4-methylphenyl)-3-(1,4-dimethyl-1H-benzo[d][1,2,3]triazol-5-yl)-2,2-dimethylpropanoate, Sodium salt]",1 to 10 nM,–
"COCC1CN(Cc2cc(C(CC(=O)O)c3ccc4c(nnn4C)c3C)ccc2C)Cc2ccccc2O1 (stereo not shown) [Example 74, 3-(1,4-Dimethyl-1H-benzo[d][1,2,3]triazol-5-yl)-3-(3-((2-(methoxymethyl)-2,3-dihydrobenzo[f][1,4]oxazepin-4(5H)-yl)methyl)-4-methylphenyl)propanoic acid, formic acid salt]",100 to 1000 nM,–
"Cc1ccc(C(CC(=O)O)c2ccc3c(nnn3C)c2C)cc1Cn1cnc(CC2CCCCC2)c1 (stereo not shown) [Example 136, 3-(3-((4-(Cyclohexylmethyl)-1H-imidazol-1-yl)methyl)-4-methylphenyl)-3-(1,4-dimethyl-1H-benzo[d][1,2,3]triazol-5-yl)propanoic Acid]",10 to 100 nM,–
